Test results taken from PubChem BioAssay AID248 (DTP/NCI, 2004).
“And” between values parts separate entries of the source, which are not always exact repeats. Equal values may be shown once. Toxic doses and inconclusive results are not listed. Rule as the data show it: active = T/C of 150% or more; inactive = T/C below 125%.

Tested on: L1210 leukemia ip in BDF1 mice, survival T/C
Experiment: NCI In Vivo Anticancer Drug Screen. Data for tumor model L1210 Leukemia (intraperitoneal) in B6D2F1 (BDF1) mice
Settings: endpoint: mean survival time, higher = longer survival
Procedure, shortened: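 Each compound was tested against a transplantable tumor grown in mice. The endpoint was survival, with treated animals benchmarked against vehicle controls as a simple ratio.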

[1] = dose: 100.0 mg/kg/injection, schedule: Q04DX003 (ip), vehicle: saline with Tween-80
[2] = dose: 200.0 mg/kg/injection, schedule: Q01DX009 (ip), vehicle: saline with Tween-80
[3] = dose: 200.0 mg/kg/injection, schedule: Q04DX003 (ip), vehicle: saline with Tween-80
[4] = dose: 400.0 mg/kg/injection, schedule: Q01DX009 (ip), vehicle: saline with Tween-80
[5] = dose: 400.0 mg/kg/injection, schedule: Q04DX003 (ip), vehicle: saline with Tween-80
[6] = dose: 100.0 mg/kg/injection, schedule: Q01DX009 (ip), vehicle: saline with Tween-80
[7] = dose: 100.0 mg/kg/injection, schedule: Q01DX009 (ip), vehicle: Klucel (hydroxypropylcellulose) (HPC)
[8] = dose: 200.0 mg/kg/injection, schedule: Q01DX009 (ip), vehicle: Klucel (hydroxypropylcellulose) (HPC)
[9] = dose: 400.0 mg/kg/injection, schedule: Q01DX009 (ip), vehicle: Klucel (hydroxypropylcellulose) (HPC)
[10] = dose: 100.0 mg/kg/injection, schedule: Q04DX003 (ip), vehicle: saline
[11] = dose: 200.0 mg/kg/injection, schedule: Q04DX003 (ip), vehicle: saline
[12] = dose: 100.0 mg/kg/injection, schedule: Q01DX001 (ip), vehicle: saline
[13] = dose: 100.0 mg/kg/injection, schedule: Q01DX009 (ip), vehicle: saline
[14] = dose: 200.0 mg/kg/injection, schedule: Q01DX001 (ip), vehicle: saline

Measured: T/C

CCOC(=O)c1[nH]nc(CC)c1O
inactive: dose: 50.0 mg/kg/injection, schedule: Q04DX003 (ip), vehicle: gum acacia 110 % of control | dose: 100.0 mg/kg/injection, schedule: Q01DX009 (ip), vehicle: gum acacia 96 % of control | dose: 100.0 mg/kg/injection, schedule: Q04DX003 (ip), vehicle: gum acacia 98 % of control | dose: 200.0 mg/kg/injection, schedule: Q01DX009 (ip), vehicle: gum acacia 92 % of control | dose: 200.0 mg/kg/injection, schedule: Q04DX003 (ip), vehicle: gum acacia 103 % of control | dose: 400.0 mg/kg/injection, schedule: Q01DX009 (ip), vehicle: gum acacia 105 % of control | dose: 400.0 mg/kg/injection, schedule: Q04DX003 (ip), vehicle: gum acacia 108 % of control

COC(OC)c1cc(=O)n(C)c(=O)[nH]1
inactive: [1] 104 % of control | [2] 93 % of control | [3] 104 % of control | [4] 89 % of control | [5] 100 % of control

O=C(Nc1cc2c(cc1Br)OCO2)C(Cl)Cl
inactive: [6] 95 % of control | [2] 120 % of control | [4] 92 % of control

O=C(Cc1ccccc1)Nc1cccc(Cl)c1
inactive: [7] 100 % of control | [8] 86 % of control | [9] 95 % of control

N#CC(C#N)=Cc1cccc(OCc2ccccc2)c1
inactive: [7] 100 % of control | [8] 91 % of control | [9] 91 % of control

CCCCCCCCCC(=O)OCCN1CCN(CCCN2c3ccccc3Sc3ccc(C(F)(F)F)cc32)CC1
inactive: dose: 1.56 mg/kg/injection, schedule: Q01DX009 (ip), vehicle: alcohol 107 % of control | dose: 25.0 mg/kg/injection, schedule: Q04DX003 (ip), vehicle: saline with Tween-80 106 % of control

O=C1NC(=O)/C(=C\c2ccc3c(c2)OCO3)S1
inactive: dose: 2.5 mg/kg/injection, schedule: Q01DX009 (ip), vehicle: saline with Tween-80 96 % of control | dose: 5.0 mg/kg/injection, schedule: Q01DX009 (ip), vehicle: saline with Tween-80 91 % of control | dose: 10.0 mg/kg/injection, schedule: Q01DX009 (ip), vehicle: saline with Tween-80 89 % of control

O=C1NC(=O)C(c2ccccc2)(C2CCC2)N1 (configuration not stated)
inactive: [6] 93 % of control | [2] 103 % of control | [4] 95 % of control

O=C(O)CCSCCSCCC(=O)O
inactive: [7] 95 % of control | [8] 90 % of control | [9] 100 % of control

CC1=C2C(=C(CBr)OS1(=O)=O)C(=O)c1ccccc12
inactive: [6] 92 % of control | [1] 96 % of control | [2] 92 % of control | [3] 103 % of control | [4] 95 % of control | [5] 94 % of control

O=C(NCCCl)NC1CCCCC1O (configuration not stated)
inactive: dose: 100.0 mg/kg/injection, schedule: Q04DX002 (ip), vehicle: saline 98 % of control | dose: 200.0 mg/kg/injection, schedule: Q04DX002 (ip), vehicle: saline 91 % of control | dose: 400.0 mg/kg/injection, schedule: Q04DX002 (ip), vehicle: saline 102 % of control

CCOC(=O)C(Cc1c(C)c(OC)c(CC(C(=O)OCC)C(=O)OCC)c(C)c1OC)C(=O)OCC
inactive: [6] 101 % of control | [1] 93 % of control | [2] 97 % of control | [3] 88 % of control | [4] 92 % of control | [5] 90 % of control

CCC(/C=C/C(C)C1CCC2C3CC=C4CC(O)CCC4(C)C3CCC12C)C(C)C (configuration not stated) (tested in a mixture with another compound)
inactive: dose: 100.0 mg/kg/injection, schedule: Q01DX001 (ip), vehicle: water 98 % of control | [1] 89 % of control | [10] 103 % of control | dose: 200.0 mg/kg/injection, schedule: Q01DX001 (ip), vehicle: water 105 % of control and 94 % of control | [11] 91 % of control | dose: 400.0 mg/kg/injection, schedule: Q04DX003 (ip), vehicle: saline 91 % of control

CC(=O)[C@H]1CC[C@H]2[C@@H]3C[C@H](C)C4=CC(=O)CC[C@]4(C)[C@H]3[C@@H](O)C[C@]12C
inactive: dose: 50.0 mg/kg/injection, schedule: Q01DX009 (ip), vehicle: saline 100 % of control | dose: 50.0 mg/kg/injection, schedule: Q01DX Z (sc), vehicle: steriod suspending solution 106 % of control | dose: 50.0 mg/kg/injection, schedule: Q04DX003 (ip), vehicle: saline 95 % of control | [12] 93 % of control | [13] 94 % of control | dose: 100.0 mg/kg/injection, schedule: Q01DX Z (sc), vehicle: steriod suspending solution 103 % of control | [10] 103 % of control | [14] 104 % of control | dose: 200.0 mg/kg/injection, schedule: Q01DX009 (ip), vehicle: saline 102 % of control | dose: 200.0 mg/kg/injection, schedule: Q01DX Z (sc), vehicle: steriod suspending solution 103 % of control | [11] 102 % of control | dose: 400.0 mg/kg/injection, schedule: Q01DX Z (sc), vehicle: steriod suspending solution 98 % of control

CCOC(=O)/C(C#N)=C(/C)C(C)C(=O)OCC (configuration not stated)
inactive: [12] 100 % of control | [13] 102 % of control | [14] 100 % of control | dose: 400.0 mg/kg/injection, schedule: Q01DX001 (ip), vehicle: saline 96 % of control

COc1ccc(Br)c(CCC(C)C)c1O
inactive: [7] 110 % of control | dose: 100.0 mg/kg/injection, schedule: Q04DX003 (ip), vehicle: Klucel (hydroxypropylcellulose) (HPC) 108 % of control | [8] 95 % of control | dose: 200.0 mg/kg/injection, schedule: Q04DX003 (ip), vehicle: Klucel (hydroxypropylcellulose) (HPC) 103 % of control | [9] 89 % of control | dose: 400.0 mg/kg/injection, schedule: Q04DX003 (ip), vehicle: Klucel (hydroxypropylcellulose) (HPC) 101 % of control

CC(C)C(=O)Nc1cccc(OC(=O)NC(C)(C)C)c1
inactive: dose: 200.0 mg/kg/injection, schedule: Q01DX001 (ip), vehicle: saline with Tween-80 89 % of control | dose: 400.0 mg/kg/injection, schedule: Q01DX001 (ip), vehicle: saline with Tween-80 87 % of control
